Source: paper PMC6927228 (Journal of Experimental Pharmacology, 2019)

Molecular target: Trypanosoma evansi protein-tyrosine phosphatase (PTPase)
Details: competitive; substrate pNPP; 25 mM HEPES pH 7.3, 10% glycerol, no EDTA; 37 °C

Compound: [O]=[V]([OH])([OH])[OH] [sodium orthovanadate]
- Ki: 200 µg/mL
